Where a name gives a salt, the structure may show the parent alone.
What was measured:
[1] = system: ptosis induced by reserpine; assay: Antagonism of the ptosis induced by reserpine; format: in vivo, female mouse CDI (Charles River); settings: reserpine 2 mg/kg i.v., 1 hour; for ED50: Mus musculus, ip
Description: This test, described by GOURET (Journal de Pharmacologie (Paris), 1973, 4(1), 105-128), was carried out on the female mouse CDI (Charles River) weighing 20±1 g. The reserpine provokes a ptosis one hour after intravenous administration thereof; certain antidepressants oppose this ptosis.
The substances to be studied were administered by the i.p. route. The reserpine is administered simultaneously by the intravenous route at the dose of 2 mg/kg. One hour after administration of the reserpine, the number of animals not presenting ptosis is noted.
This test was carried out on batches of 10 mice, the results are expressed in percentage of animals not presenting ptosis and are the average of at least two experiments.

mice = assay: Convulsivant threshold dose (same experiments as acute toxicity); format: in vivo, mouse
Description: (§1) The products to be studied were administered by the intraperitoneal route in increasing doses to batches of 10 mice. The mortality provoked by the products studied was noted during the 24 hours following administration of the product.
During the same experiments, the convulsivant threshold dose of the product is also noted, i.e. the minimum dose for which a convulsivant activity begins to show.

[2] = Acute toxicity (LD50, 24 hours, intraperitoneal); settings: mouse, in vivo, ip
Description: as §1
From the results obtained, the lethal dose 50, i.e. the dose provoking the death of 50% of the animals studied, is determined for each of the products studied.

[3] = system: striatal dopaminergic receptors; assay: Dopaminomimetic activity (rotations after unilateral lesion of nigrostriatal dopaminergic neurones); format: in vivo, mouse; settings: 5.3 μmoles/kg i.p.
Text: The dopaminomimetic activity of the products of the invention was studied on the striatal dopaminergic receptors of the mouse according to the technique described by P. PROTAIS and J. COSTENTIN, Journal de Pharmacologie (Paris), 7, 251-255 (1976).
The unilateral lesion of the nigrostriatal dopaminergic neurones induces a hypersensitivity of the receptors of the dopamine at the level of the striatum.
After administration of the products to be studied by the intraperitoneal route, the number of rotations made by the animal is counted for a period of 2 minutes.
The results are expressed in the form of percentage of the variations with respect to the controls not having received the product to be studied.

[4] = system: despair reaction (duration of immobilisation); assay: Despair reaction ("Behavioral Despair"); format: in vivo, female mouse, CDI (Charles River); settings: 10 mg/kg i.p., 1 hour before test; immobile time between 2nd and 6th minute
Description: This test was carried out on the female mouse, CDI (Charles River), weighing 18 to 23 g, according to the method described by Porsolt (Archives Internationales de Pharmacodynamie, 1977, 229, 327-336). The principle of this test is as follows: when a mouse is placed in a narrow recipient filled with water, it struggles, then, after 2 to 4 mins., it becomes still and floats on its stomach, its back rounded, its rear paws drawn up under its body and it makes only a few movements necessary for holding its head out of the water. This is the so-called despair reaction. Certain psychotherapeutic agents, particularly antidepressants, extend the time during which the mouse struggles. The products to be studied were administered by the i.p. route 1 hour before the test. For the test, the animals are placed in a narrow recipient (10×10×10 cm) filled with water up to a height of 6 cm, the temperature of the water being 24° C.±2° C. The animals are left 6 minutes in the water and the time when the animal remains immobile between the 2nd and the 6th minute is measured--the shorter this time, the more the substance is active. Each substance was studied on a batch of 10 mice. The results are the average of at least two experiments.

[5] = cited from earlier work
[6] = mice, mortality during 24 hours

SMILES	LD50 at 24 h [2, 6]	Average number of ipsilateral rotations in 2 minutes, % with respect to controls [3]	Convulsivant threshold dose (mice; mouse, in vivo, ip)	LD50 at 24 h [2]	ED50 [1]	further results
COc1ccc(-c2cc(C)c(NCCN3CCOCC3)nn2)cc1 [CM 30073, reference compound]	19 mg/kg	0%	–	–	–	Antagonism of the ptosis induced by reserpine (percentage of animals not presenting ptosis) ([1]; 1 mg/kg i.p.): 30%; Antagonism of the ptosis induced by reserpine (percentage of animals not presenting ptosis) ([1]; 5 mg/kg i.p.): 60%; Convulsivant threshold dose (mice; i.p., mice, minimum dose for which a convulsivant activity begins to show): 5 mg/kg
Cc1cc(-c2ccccc2)nnc1NCCNCCO [CM 30311, 3-[2-(2-HYDROXY ETHYLAMINO)ETHYLAMINO]4-METHYL 6-PHENYL PYRIDAZINE, DIHYDROCHLORIDE]	–	-146%	200 mg/kg	> 200 mg/kg	–	–
Br.Br.Cc1cc(-c2ccc(O)cc2)nnc1NCCN1CCOCC1 [CM 30366, 3-(2-MORPHOLINO ETHYLAMINO)4-METHYL 6-(4-HYDROXY PHENYL)PYRIDAZINE DIHYDROBROMIDE]	–	-111%	200 mg/kg	> 200 mg/kg	12 mg/kg	"Behavioral Despair" % of reduction of the duration of immobilisation [4]: -31%
Cc1cc(-c2ccccc2)nnc1N [CM 30465, 3-AMINO 4-METHYL 6-PHENYL PYRIDAZINE(HYDROCHLORIDE)]	–	-89%	200 mg/kg	226 mg/kg	8.6 mg/kg	"Behavioral Despair" % of reduction of the duration of immobilisation [4]: -24%
Cc1cc(-c2ccccc2)nnc1NCCN1CCOCC1=O [CM 30488, 3-[2-(3-OXO 4-MORPHOLINYL)ETHYLAMINO]4-METHYL 6-PHENYL PYRIDAZINE, HYDROCHLORIDE]	–	-90%	300 mg/kg	> 300 mg/kg	20 mg/kg	–
Cc1cc(-c2ccccc2)nnc1NCCN1CCOC(=O)C1 [CM 30489, 3-[2-(2-OXO 4-MORPHOLINYL)ETHYLAMINO]4-METHYL 6-PHENYL PYRIDAZINE, DIHYDROCHLORIDE]	–	-97%	–	–	–	–
Cc1cc(-c2ccccc2)nnc1NCCN1CCOCC1 [Minaprine, reference compound]	–	-91%	35 mg/kg	–	5 mg/kg	"Behavioral Despair" % of reduction of the duration of immobilisation [4]: -35%; type of psychotherapeutic action ([5]; in vivo): "disinhibitory" activity; dose above which convulsivant ([5]; per os): higher than 100 mg/kg
Cc1cc(-c2ccccc2)nnc1NCC[N+]1([O-])CCOCC1 [SR 30490, N-OXIDE of 3-(2-MORPHOLINO ETHYLAMINO 4-METHYL 6-PHENYL PYRIDAZINE]	–	–	300 mg/kg	> 200 mg/kg	~50 mg/kg	–
Cc1cc(-c2ccccc2O)nnc1NCCN1CCOCC1 [SR 95070, 3-(2-morpholinoethylamino)4-methyl 6-(2-hydroxyphenyl)pyridazine]	> 200 mg/kg	-89%	200 mg/kg	–	–	–
Cc1cc(-c2cccc(O)c2)nnc1NCCN1CCOCC1 [SR 95082, 3-(2-morpholinoethylamino)4-methyl 6-(3-hydroxyphenyl)pyridazine]	> 200 mg/kg	–	> 200 mg/kg	–	–	–
CCN(CCO)CCNc1nnc(-c2ccccc2)cc1C [SR 95084, 3-{2-[N-ethyl(2-hydroxyethylamino)]ethylamino}4-methyl 6-phenyl pyridazine]	100 to 200 mg/kg	–	200 mg/kg	–	–	–
Cc1cc(-c2ccc(O)cc2)nnc1N [SR 95087, 3-amino 4-methyl 6-(4-hydroxyphenyl)pyridazine]	> 200 mg/kg	–	> 200 mg/kg	–	–	–

— patent US4576946A, “Derivatives of 4-methyl 6-phenyl pyridazine active on the central nervous system” (Sanofi, priority 1981, dated 1986)
